Legend:
Assay in all cases: biochemical
MAPKAPK3 = MAPKAPK3 (Homo sapiens, UniProt Q16644); parameters: gene MAPKAPK3; details: read-out: Dundee KSS % inhibition at 1uM
Method: The METi and RAFi were screened against kinase panels (SelectScreen, Invitrogen; University of Dundee, Division of Signal Transduction Therapy, UK; Upstate Biotechnology/Millipore, Billerica, MA). In these selectivity assays the concentration of ATP was set to the Km value of ATP for each kinase tested to allow for a relative potency comparison between the various kinases. The compounds were tested at 1 µM final concentration. […] (A) Kinase selectivity screen (KSS) performed at Upstate Biotechnology. […] (B) KSS performed at University of Dundee (Division of Signal Transduction Therapy). […] (PDF) Click here for additional data file.

chicken CSK = chicken CSK (Gallus gallus, UniProt P41239); parameters: University of Dundee kinase panel, percent inhibition of phosphorylation at 1 uM RAFi, ATP at Km; details: read-out: Dundee KSS %inh at 1 uM
Sequence of chicken CSK (P41239 whole entry): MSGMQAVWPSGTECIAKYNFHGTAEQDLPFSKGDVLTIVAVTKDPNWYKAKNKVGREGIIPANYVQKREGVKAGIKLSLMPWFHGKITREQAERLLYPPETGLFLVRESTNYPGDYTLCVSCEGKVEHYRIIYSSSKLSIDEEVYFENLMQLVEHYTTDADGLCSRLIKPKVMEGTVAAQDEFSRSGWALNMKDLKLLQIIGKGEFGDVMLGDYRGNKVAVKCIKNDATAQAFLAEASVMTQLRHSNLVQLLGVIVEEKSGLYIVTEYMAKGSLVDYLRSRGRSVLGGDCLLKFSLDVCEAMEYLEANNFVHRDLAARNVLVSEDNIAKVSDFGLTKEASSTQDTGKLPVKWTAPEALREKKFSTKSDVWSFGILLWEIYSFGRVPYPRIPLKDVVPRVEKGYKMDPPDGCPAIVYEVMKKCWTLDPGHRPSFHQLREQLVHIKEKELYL
Method: (§1) The METi and RAFi were screened against kinase panels (SelectScreen, Invitrogen; University of Dundee, Division of Signal Transduction Therapy, UK; Upstate Biotechnology/Millipore, Billerica, MA). In these selectivity assays the concentration of ATP was set to the Km value of ATP for each kinase tested to allow for a relative potency comparison between the various kinases. The compounds were tested at 1 µM final concentration. […] Supplementary file pone.0039653.s002.pdf: Figure S2 Kinase Selectivity Screen of RAFi. (A) Kinase selectivity screen (KSS) performed at University of Dundee (Division of Signal Transduction Therapy). Values in % inhibition of phosphorylation given 1 µM of RAFi compared to control. (B) KSS performed at Invitrogen (Selectscreen Service) compared to control. Values in % inhibition of phosphorylation given 1 µM of RAFi. (C) Cell based dose response kinase inhibition of indicated kinases by RAFi. (PDF) Click here for additional data file.

rat AMPKa2 = target: T1, rat AMPKa2 (Rattus norvegicus, UniProt Q09137); parameters: University of Dundee kinase panel, percent inhibition of phosphorylation at 1 uM RAFi, ATP at Km; details: read-out: Dundee KSS %inh at 1 uM
T1 construct: gene Prkaa2
T1 sequence (Q09137 whole entry): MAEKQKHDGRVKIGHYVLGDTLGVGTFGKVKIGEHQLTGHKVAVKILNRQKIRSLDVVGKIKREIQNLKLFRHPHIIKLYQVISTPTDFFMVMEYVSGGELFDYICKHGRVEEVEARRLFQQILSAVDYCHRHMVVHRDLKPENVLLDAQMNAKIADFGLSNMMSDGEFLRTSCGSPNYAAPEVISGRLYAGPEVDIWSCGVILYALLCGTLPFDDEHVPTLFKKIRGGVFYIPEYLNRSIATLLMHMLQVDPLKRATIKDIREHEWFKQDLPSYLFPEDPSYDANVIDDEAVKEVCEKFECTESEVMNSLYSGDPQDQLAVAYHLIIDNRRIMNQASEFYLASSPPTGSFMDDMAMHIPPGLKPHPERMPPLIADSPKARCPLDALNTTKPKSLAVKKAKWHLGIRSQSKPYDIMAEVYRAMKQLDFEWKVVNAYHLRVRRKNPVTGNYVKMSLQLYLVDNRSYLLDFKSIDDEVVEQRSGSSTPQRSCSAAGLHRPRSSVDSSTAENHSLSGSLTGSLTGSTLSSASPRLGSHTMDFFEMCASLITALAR
Method: as §1

PDK1 = target: T2, PDK1 (Homo sapiens, UniProt O15530); parameters: University of Dundee kinase panel, percent inhibition of phosphorylation at 1 uM RAFi, ATP at Km; details: read-out: Dundee KSS %inh at 1 uM
T2 construct: gene PDPK1
Method: as §1

NEK2 = NEK2 (Homo sapiens, UniProt P51955); parameters: University of Dundee kinase panel, percent inhibition of phosphorylation at 1 uM RAFi, ATP at Km; details: read-out: Dundee KSS %inh at 1 uM
Sequence of NEK2 (P51955 whole entry): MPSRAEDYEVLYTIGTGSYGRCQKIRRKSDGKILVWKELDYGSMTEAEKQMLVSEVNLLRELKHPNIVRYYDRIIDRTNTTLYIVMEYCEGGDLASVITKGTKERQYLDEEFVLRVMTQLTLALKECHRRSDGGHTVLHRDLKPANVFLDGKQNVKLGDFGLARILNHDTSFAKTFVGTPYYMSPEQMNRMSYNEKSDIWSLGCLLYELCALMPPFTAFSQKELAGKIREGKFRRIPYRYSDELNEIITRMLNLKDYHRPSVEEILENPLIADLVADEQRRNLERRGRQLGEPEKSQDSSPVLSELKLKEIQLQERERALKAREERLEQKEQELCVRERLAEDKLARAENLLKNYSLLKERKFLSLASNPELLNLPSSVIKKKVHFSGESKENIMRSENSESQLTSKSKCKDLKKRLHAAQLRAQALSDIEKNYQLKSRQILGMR
Method: as §1

AURB = target: T3, AURB (Homo sapiens, UniProt Q96GD4); parameters: University of Dundee kinase panel, percent inhibition of phosphorylation at 1 uM RAFi, ATP at Km; details: read-out: Dundee KSS %inh at 1 uM
T3 construct: gene AURKB
T3 sequence (Q96GD4 whole entry): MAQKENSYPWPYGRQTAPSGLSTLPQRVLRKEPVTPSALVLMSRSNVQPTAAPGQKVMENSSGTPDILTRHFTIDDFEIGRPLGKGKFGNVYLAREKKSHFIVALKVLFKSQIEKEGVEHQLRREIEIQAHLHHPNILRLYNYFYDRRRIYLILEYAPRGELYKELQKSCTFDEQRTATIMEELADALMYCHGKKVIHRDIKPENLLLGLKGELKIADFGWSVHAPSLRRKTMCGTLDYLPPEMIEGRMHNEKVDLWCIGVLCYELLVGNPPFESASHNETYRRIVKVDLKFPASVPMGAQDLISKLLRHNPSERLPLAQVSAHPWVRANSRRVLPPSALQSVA
Method: as §1

PIM1 = PIM1 (Homo sapiens, UniProt P11309); parameters: University of Dundee kinase panel, percent inhibition of phosphorylation at 1 uM RAFi, ATP at Km; details: read-out: Dundee KSS %inh at 1 uM
Method: as §1

IKKb = target: T4, IKKb (Homo sapiens, UniProt O14920); parameters: University of Dundee kinase panel, percent inhibition of phosphorylation at 1 uM RAFi, ATP at Km; details: read-out: Dundee KSS %inh at 1 uM
T4 construct: gene IKBKB
T4 sequence (O14920 whole entry): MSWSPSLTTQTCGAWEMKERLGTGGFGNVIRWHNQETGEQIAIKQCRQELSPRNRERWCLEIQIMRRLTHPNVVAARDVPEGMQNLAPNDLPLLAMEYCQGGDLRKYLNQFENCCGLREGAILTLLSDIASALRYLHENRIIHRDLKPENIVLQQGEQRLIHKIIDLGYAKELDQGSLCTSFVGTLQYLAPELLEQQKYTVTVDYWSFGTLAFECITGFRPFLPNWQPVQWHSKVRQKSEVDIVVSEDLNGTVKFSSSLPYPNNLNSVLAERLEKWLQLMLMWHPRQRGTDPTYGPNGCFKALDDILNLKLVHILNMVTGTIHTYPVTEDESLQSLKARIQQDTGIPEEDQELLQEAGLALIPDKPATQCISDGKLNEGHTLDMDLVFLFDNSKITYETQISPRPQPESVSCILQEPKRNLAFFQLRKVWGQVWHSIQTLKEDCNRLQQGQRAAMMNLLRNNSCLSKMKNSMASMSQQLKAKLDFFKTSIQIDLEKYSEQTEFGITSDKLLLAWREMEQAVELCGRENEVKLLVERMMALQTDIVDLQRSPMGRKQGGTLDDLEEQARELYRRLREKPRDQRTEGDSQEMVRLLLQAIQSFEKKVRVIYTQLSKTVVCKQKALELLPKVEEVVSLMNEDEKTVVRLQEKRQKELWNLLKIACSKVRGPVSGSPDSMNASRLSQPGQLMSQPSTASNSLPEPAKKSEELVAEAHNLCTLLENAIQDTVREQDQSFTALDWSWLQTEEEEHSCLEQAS
Method: as §1

DYRK2 = target: T5, DYRK2 (Homo sapiens, UniProt Q92630); parameters: University of Dundee kinase panel, percent inhibition of phosphorylation at 1 uM RAFi, ATP at Km; details: read-out: Dundee KSS %inh at 1 uM
T5 sequence (Q92630 1-601): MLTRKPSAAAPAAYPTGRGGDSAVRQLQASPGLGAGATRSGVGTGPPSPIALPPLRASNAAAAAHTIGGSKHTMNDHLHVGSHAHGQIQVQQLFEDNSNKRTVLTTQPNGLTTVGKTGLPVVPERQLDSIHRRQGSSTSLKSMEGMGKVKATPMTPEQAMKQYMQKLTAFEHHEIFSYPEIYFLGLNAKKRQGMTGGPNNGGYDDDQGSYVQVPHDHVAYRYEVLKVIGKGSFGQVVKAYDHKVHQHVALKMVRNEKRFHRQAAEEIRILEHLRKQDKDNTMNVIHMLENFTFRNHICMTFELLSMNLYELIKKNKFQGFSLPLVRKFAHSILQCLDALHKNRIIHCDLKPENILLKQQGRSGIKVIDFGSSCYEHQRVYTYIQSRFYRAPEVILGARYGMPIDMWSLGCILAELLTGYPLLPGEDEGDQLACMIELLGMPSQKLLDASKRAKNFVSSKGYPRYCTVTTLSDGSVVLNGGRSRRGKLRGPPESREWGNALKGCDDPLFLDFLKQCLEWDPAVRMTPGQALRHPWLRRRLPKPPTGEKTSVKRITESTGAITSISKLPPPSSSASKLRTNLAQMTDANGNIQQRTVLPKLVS
Method: as §1

RSK2 = target: T6, RSK2 (Homo sapiens, UniProt P51812); parameters: University of Dundee kinase panel, percent inhibition of phosphorylation at 1 uM RAFi, ATP at Km; details: read-out: Dundee KSS %inh at 1 uM
T6 construct: gene RPS6KA3
T6 sequence (P51812 whole entry): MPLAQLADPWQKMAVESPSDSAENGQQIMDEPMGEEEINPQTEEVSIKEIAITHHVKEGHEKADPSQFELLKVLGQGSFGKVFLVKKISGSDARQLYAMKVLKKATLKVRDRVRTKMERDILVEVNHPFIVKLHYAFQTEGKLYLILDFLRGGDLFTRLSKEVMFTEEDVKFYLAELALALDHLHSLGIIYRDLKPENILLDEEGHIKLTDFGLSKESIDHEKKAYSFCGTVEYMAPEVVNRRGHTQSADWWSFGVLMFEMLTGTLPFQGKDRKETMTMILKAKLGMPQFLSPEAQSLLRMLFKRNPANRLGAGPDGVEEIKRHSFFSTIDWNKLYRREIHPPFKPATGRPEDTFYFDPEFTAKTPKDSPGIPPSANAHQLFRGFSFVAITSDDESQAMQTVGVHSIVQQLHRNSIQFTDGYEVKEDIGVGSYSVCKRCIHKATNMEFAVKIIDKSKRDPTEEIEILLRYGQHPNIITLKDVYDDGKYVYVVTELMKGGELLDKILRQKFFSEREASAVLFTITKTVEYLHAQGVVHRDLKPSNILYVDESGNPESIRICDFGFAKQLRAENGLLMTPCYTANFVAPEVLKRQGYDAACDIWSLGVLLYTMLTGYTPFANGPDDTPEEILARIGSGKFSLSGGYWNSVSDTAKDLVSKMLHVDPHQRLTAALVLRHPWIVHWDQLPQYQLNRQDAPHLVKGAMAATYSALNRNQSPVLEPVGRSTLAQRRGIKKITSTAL
Method: as §1

SRPK1 = SRPK1 (Homo sapiens, UniProt Q96SB4); parameters: University of Dundee kinase panel, percent inhibition of phosphorylation at 1 uM RAFi, ATP at Km; details: read-out: Dundee KSS %inh at 1 uM
Method: as §1

rat RSK1 = target: T7, rat RSK1 (Rattus norvegicus, UniProt Q63531); parameters: University of Dundee kinase panel, percent inhibition of phosphorylation at 1 uM RAFi, ATP at Km; details: read-out: Dundee KSS %inh at 1 uM
T7 construct: gene Rps6ka1
Method: as §1

CHK1 = target: T8, CHK1 (Homo sapiens, UniProt O14757); parameters: University of Dundee kinase panel, percent inhibition of phosphorylation at 1 uM RAFi, ATP at Km; details: read-out: Dundee KSS %inh at 1 uM
T8 construct: gene CHEK1
T8 sequence (O14757 whole entry): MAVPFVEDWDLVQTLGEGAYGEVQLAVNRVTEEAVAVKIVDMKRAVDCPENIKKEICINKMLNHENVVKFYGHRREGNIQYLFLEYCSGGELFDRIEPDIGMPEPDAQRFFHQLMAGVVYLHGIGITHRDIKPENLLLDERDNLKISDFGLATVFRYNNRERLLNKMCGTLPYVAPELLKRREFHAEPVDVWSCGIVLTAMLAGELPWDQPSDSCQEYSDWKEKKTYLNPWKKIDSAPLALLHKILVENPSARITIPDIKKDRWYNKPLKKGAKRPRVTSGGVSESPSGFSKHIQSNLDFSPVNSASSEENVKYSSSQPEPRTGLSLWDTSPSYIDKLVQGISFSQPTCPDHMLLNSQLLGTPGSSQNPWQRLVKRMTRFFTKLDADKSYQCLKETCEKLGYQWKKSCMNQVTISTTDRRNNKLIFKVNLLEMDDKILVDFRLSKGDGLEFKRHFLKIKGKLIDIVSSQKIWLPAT
Method: as §1

PRKCG (PKC gamma) = PRKCG (PKC gamma) (Homo sapiens, UniProt P05129); parameters: Invitrogen SelectScreen kinase panel, percent inhibition at 1 uM, ATP at Km; details: read-out: Invitrogen KSS %Inh at 1 µM
Summary of the method: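 Commercial kinase panel screens run with ATP at the Km for each kinase. Compounds tested at 1 µM final concentration; values are % inhibition of phosphorylation relative to control.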

Sequence of MAPKAPK3 (Q16644 whole entry): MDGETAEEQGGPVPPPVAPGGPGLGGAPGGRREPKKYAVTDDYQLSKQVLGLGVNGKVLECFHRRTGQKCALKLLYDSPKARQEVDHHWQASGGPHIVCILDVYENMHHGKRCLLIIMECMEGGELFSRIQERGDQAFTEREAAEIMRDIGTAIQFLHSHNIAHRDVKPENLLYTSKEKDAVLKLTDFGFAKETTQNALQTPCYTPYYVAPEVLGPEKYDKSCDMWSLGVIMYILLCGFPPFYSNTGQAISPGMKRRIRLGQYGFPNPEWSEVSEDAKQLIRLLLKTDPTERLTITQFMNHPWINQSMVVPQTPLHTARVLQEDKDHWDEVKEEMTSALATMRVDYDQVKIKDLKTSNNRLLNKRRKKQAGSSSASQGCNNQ

| inhibition at 1 µM (MAPKAPK3) [%] | inhibition at 1 µM (chicken CSK) [%] | inhibition at 1 µM (rat AMPKa2) [%] | inhibition at 1 µM (PDK1) [%] | inhibition at 1 µM (NEK2) [%] | inhibition at 1 µM (AURB) [%] | inhibition at 1 µM (PIM1) [%] | inhibition at 1 µM (IKKb) [%] | inhibition at 1 µM (DYRK2) [%] | inhibition at 1 µM (RSK2) [%] | inhibition at 1 µM (SRPK1) [%] | inhibition at 1 µM (rat RSK1) [%] | inhibition at 1 µM (CHK1) [%] | inhibition at 1 µM (PRKCG (PKC gamma)) [%] | SMILES |
| --- | --- | --- | --- | --- | --- | --- | --- | --- | --- | --- | --- | --- | --- | --- |
| 18.6 |  |  |  |  |  |  |  |  |  |  |  |  |  | OCCn1cc(-c2cnc3nnn(Cc4ccc5ncccc5c4)c3n2)cn1 [METi, PF-04217903] |
|  | 27 | 15 | 11 | 73 | 16 | 4 | 4 | 23 | 30 | 5 | 29 | 2 | -15 | N#CCCNc1nccc(-c2cn(CC(F)F)nc2-c2cnc3[nH]ccc3c2)n1 [RAFi, PF-04880594] |

From paper PMC3382171 (PLoS ONE, 2012)
